Results: PubChem BioAssay AID2060899 (Molecular Pharmacology Branch, DTP, NCI, 2025)

Test system: 565726-208-R1-J5-PDC complex spheroids, growth inhibition
Assay: Anticancer human tumor 565726-208-R1-J5-PDC patient-derived pancreatic adenocarcinoma cell line growth inhibition [RAS]
Conditions: for IC50: curve of first compound; for viability, T/C: stronger effect = lower value
Text: RAS pathway inhibitors in Combinations in Complex Spheroids
A high-throughput screen of multi-cell type tumor spheroids was designed to identify active combinations of RAS pathway inhibitors and targeted small molecules. Complex spheroids include a stromal component modeled by human endothelial cells (HUVEC) and fibroblasts modeled by human mesenchymal stem cells (MSCs). The concentration ranges selected for each drug and investigational agent were based upon clinically achievable concentrations if the clinical Cmax of the agent was known.
Compounds. The drugs and investigational agents: abemaciclib (NSC768073), cobimetinib (NSC768068), divarasib (GDC6063, NSC841802), docetaxel (NSC628503), GDC-1971 (RLY-1971, NSC841576), gemcitabine (NSC613327), inavolisib (NSC800729), ipatasertib (NSC767898), KB-0742 (NSC834161), MRTX-1133 (NSC836407), osimertinib (NSC779217), RMC-4630 (NSC839698), RMC-6236 (NSC851965), RMC-6291 (NSC852671), Ro-3306 (NSC812927), sapanisertib (NSC764658), SN-38 (NSC673596), staurosporine (NSC755774), SY5609 (NSC837396), and tovorafenib (DAY101, NSC766906), were obtained from the National Cancer Institute (NCI) Developmental Therapeutics Program Chemical Repository. The FDA-approved anticancer drug set is available from the NCI Developmental Therapeutics Program. […] The stock solutions were prepared in dimethyl sulfoxide (DMSO, Sigma-Aldrich, St. Louis, MO, cat. D2650) at 800-fold the tested concentration and stored at -70 degrees C prior to their use. All drugs and investigational agents were tested over a range starting from a high concentration at or near the clinical Cmax and decreasing in half-log increments. If the clinical Cmax for an agent had not been determined, the highest concentration tested was 10 microM.
Cell Culture. All cells were maintained in an incubator at 37 degrees C and 5% CO2 with 95% humidity. The PDC lines were cultured according to standard operating procedures established by the NCI PDMR. All PDCs were thawed and cultured in Matrigel-coated flasks prepared with a working solution of 1X Ham's F-12 nutrient mix, without supplementation (Invitrogen, Waltham, MA, cat. 11765054), 100 U/mL penicillin-streptomycin (Invitrogen, cat. 15140122), and 2.5% Matrigel (Corning Inc., Corning, NY, cat. 354248) for the first three passages. The 362531-283-R-J2-PDC and 782815-120-R-J1-PDC lines were cultured in 6C/Colon 1B media, which includes advanced DMEM/F-12 (Thermo Fisher Scientific, cat. 12634028), 10 mM HEPES (Thermo Fisher Scientific, cat. 15630080), 1X GlutaMAX supplement (Thermo Fisher Scientific, cat. 35050061), 0.1 mg/mL primocin (InvivoGen, San Diego, CA, cat. ant-pm-2), 10% defined fetal bovine serum, heat inactivated (HyClone Laboratories Inc., Logan, UT, cat. SH30070.03HI), 50% L-WRN conditioned media (ATCC, cat. CRL-3276), 1.25 mM N-Acetyl-L-cysteine (Sigma-Aldrich, cat. A9165), 10 mM nicotinamide (Sigma-Aldrich, cat. N0636), 1X B-27 supplement (Thermo Fisher Scientific, cat. 17504044), 1X N-2 supplement (Thermo Fisher Scientific, cat. 17502048), 50 ng/mL human EGF (Thermo Fisher Scientific, cat. PHG0311), and 10 microM Y-27632 dihydrochloride (Tocris Bioscience, cat. 1254). The K12877-001-R-J1-PDC line was cultured in 6I media, which includes all 6C/Colon 1B media plus 10 ng/mL human FGF-10 (PeproTech, cat. 100-26), 1 ng/mL human FGF-2 (PeproTech, cat. 100-18B), 1 µM prostaglandin E2 (Tocris Bioscience, cat. 2296), […] hydrocortisone (Sigma-Aldrich, cat. H4001), and […] bovine insulin (Sigma-Aldrich, cat. I6634). The K86415-001-R-J1-PDC line was cultured in 6D media, which includes all 6C/Colon 1B media components minus the L-WRN conditioned media. The 485176-168-R4-J1-PDC was cultured in PANC media, which includes all 6C/Colon 1B media plus 100 ng/mL human FGF-10 (PeproTech, cat. 100-26), 500 nM SB-431542 (Selleckchem, cat. S1067), and 10 nM gastrin (Tocris Bioscience, cat. 3006). […]
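Further: spheroids exposed to compounds for seven days before readout.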
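Wherever viability, T/C is given: 100% = DMSO vehicle control viability.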

Compound: CC1(O)CCCC1n1c(=O)c(C(F)F)cc2cnc(NC3CCN(S(C)(=O)=O)CC3)nc21 (centres undefined) + CCn1c(-c2cccnc2C(C)OC)c2c3cc(ccc31)N1CCOC(CC(NC(=O)C(C(C)C)N(C)C(=O)C3(F)CCN(C(=O)C#CC(C)(C)N(C)C)CC3)C(=O)N3CCCC(N3)C(=O)OCC(C)(C)C2)C1
- IC50 (second compound 0.000949 µM): 1580 nM
- IC50 (second compound 0.003 µM): 1740 nM
- IC50 (second compound 0.00949 µM): 2480 nM
- IC50 (second compound 0.03 µM): 2150 nM
- IC50 (second compound 0.0949 µM): 734 nM
- IC50 (second compound 0.3 µM): 1650 nM
- viability, T/C (second compound 0.000949 µM, first compound 0.0316 µM): 89.3%
- viability, T/C (second compound 0.000949 µM, first compound 0.1 µM): 65.9%
- viability, T/C (second compound 0.000949 µM, first compound 0.316 µM): 61.5%
- viability, T/C (second compound 0.000949 µM, first compound 1 µM): 55.9%
- viability, T/C (second compound 0.000949 µM, first compound 3.16 µM): 48%
- viability, T/C (second compound 0.000949 µM, first compound 10 µM): 4.71%
- viability, T/C (second compound 0.003 µM, first compound 0.0316 µM): 92.6%
- viability, T/C (second compound 0.003 µM, first compound 0.1 µM): 66.7%
- viability, T/C (second compound 0.003 µM, first compound 0.316 µM): 59.9%
- viability, T/C (second compound 0.003 µM, first compound 1 µM): 61.9%
- viability, T/C (second compound 0.003 µM, first compound 3.16 µM): 47.5%
- viability, T/C (second compound 0.003 µM, first compound 10 µM): 5.57%
- viability, T/C (second compound 0.00949 µM, first compound 0.0316 µM): 87.1%
- viability, T/C (second compound 0.00949 µM, first compound 0.1 µM): 73.3%
- viability, T/C (second compound 0.00949 µM, first compound 0.316 µM): 64%
- viability, T/C (second compound 0.00949 µM, first compound 1 µM): 65.4%
- viability, T/C (second compound 0.00949 µM, first compound 3.16 µM): 50.4%
- viability, T/C (second compound 0.00949 µM, first compound 10 µM): 4.99%
- viability, T/C (second compound 0.03 µM, first compound 0.0316 µM): 79.3%
- viability, T/C (second compound 0.03 µM, first compound 0.1 µM): 70.6%
- viability, T/C (second compound 0.03 µM, first compound 0.316 µM): 64.6%
- viability, T/C (second compound 0.03 µM, first compound 1 µM): 55%
- viability, T/C (second compound 0.03 µM, first compound 3.16 µM): 51.5%
- viability, T/C (second compound 0.03 µM, first compound 10 µM): 5.14%
- viability, T/C (second compound 0.0949 µM, first compound 0.0316 µM): 86.3%
- viability, T/C (second compound 0.0949 µM, first compound 0.1 µM): 72.7%
- viability, T/C (second compound 0.0949 µM, first compound 0.316 µM): 53.8%
- viability, T/C (second compound 0.0949 µM, first compound 1 µM): 53%
- viability, T/C (second compound 0.0949 µM, first compound 3.16 µM): 49.9%
- viability, T/C (second compound 0.0949 µM, first compound 10 µM): 3.75%
- viability, T/C (second compound 0.3 µM, first compound 0.0316 µM): 68%
- viability, T/C (second compound 0.3 µM, first compound 0.1 µM): 64.2%
- viability, T/C (second compound 0.3 µM, first compound 0.316 µM): 54.3%
- viability, T/C (second compound 0.3 µM, first compound 1 µM): 54.1%
- viability, T/C (second compound 0.3 µM, first compound 3.16 µM): 45.4%
- viability, T/C (second compound 0.3 µM, first compound 10 µM): 3.4%

Compound: CCc1c2c(nc3ccc(O)cc13)-c1cc3c(c(=O)n1C2)COC(=O)[C@]3(O)CC + C#Cc1c(F)ccc2cc(O)cc(-c3ncc4c(N5CC6CCC(C5)N6)nc(OCC56CCCN5CC(F)C6)nc4c3F)c12
- IC50 (second compound 0.0316 µM): 4.16 nM
- IC50 (second compound 0.1 µM): 4.06 nM
- IC50 (second compound 0.316 µM): 3.83 nM
- IC50 (second compound 1 µM): 2.73 nM
- IC50 (second compound 3.16 µM): 3.14 nM
- IC50 (second compound 10 µM): 1.5 nM
- viability, T/C (second compound 0.0316 µM, first compound 0.000949 µM): 74.2%
- viability, T/C (second compound 0.0316 µM, first compound 0.003 µM): 56.9%
- viability, T/C (second compound 0.0316 µM, first compound 0.00949 µM): 34%
- viability, T/C (second compound 0.0316 µM, first compound 0.03 µM): 20.2%
- viability, T/C (second compound 0.0316 µM, first compound 0.0949 µM): 12.5%
- viability, T/C (second compound 0.0316 µM, first compound 0.3 µM): 5.35%
- viability, T/C (second compound 0.1 µM, first compound 0.000949 µM): 97.8%
- viability, T/C (second compound 0.1 µM, first compound 0.003 µM): 56%
- viability, T/C (second compound 0.1 µM, first compound 0.00949 µM): 31.8%
- viability, T/C (second compound 0.1 µM, first compound 0.03 µM): 19.4%
- viability, T/C (second compound 0.1 µM, first compound 0.0949 µM): 13.1%
- viability, T/C (second compound 0.1 µM, first compound 0.3 µM): 6.83%
- viability, T/C (second compound 0.316 µM, first compound 0.000949 µM): 81.1%
- viability, T/C (second compound 0.316 µM, first compound 0.003 µM): 56.2%
- viability, T/C (second compound 0.316 µM, first compound 0.00949 µM): 30.2%
- viability, T/C (second compound 0.316 µM, first compound 0.03 µM): 20.6%
- viability, T/C (second compound 0.316 µM, first compound 0.0949 µM): 13.9%
- viability, T/C (second compound 0.316 µM, first compound 0.3 µM): 6.04%
- viability, T/C (second compound 1 µM, first compound 0.000949 µM): 70.8%
- viability, T/C (second compound 1 µM, first compound 0.003 µM): 43%
- viability, T/C (second compound 1 µM, first compound 0.00949 µM): 35.9%
- viability, T/C (second compound 1 µM, first compound 0.03 µM): 22.4%
- viability, T/C (second compound 1 µM, first compound 0.0949 µM): 11.8%
- viability, T/C (second compound 1 µM, first compound 0.3 µM): 6.08%
- viability, T/C (second compound 3.16 µM, first compound 0.000949 µM): 58.8%
- viability, T/C (second compound 3.16 µM, first compound 0.003 µM): 54.6%
- viability, T/C (second compound 3.16 µM, first compound 0.00949 µM): 29.1%
- viability, T/C (second compound 3.16 µM, first compound 0.03 µM): 22.1%
- viability, T/C (second compound 3.16 µM, first compound 0.0949 µM): 14.1%
- viability, T/C (second compound 3.16 µM, first compound 0.3 µM): 7.99%
- viability, T/C (second compound 10 µM, first compound 0.000949 µM): 52.6%
- viability, T/C (second compound 10 µM, first compound 0.003 µM): 49.1%
- viability, T/C (second compound 10 µM, first compound 0.00949 µM): 30.1%
- viability, T/C (second compound 10 µM, first compound 0.03 µM): 30.9%
- viability, T/C (second compound 10 µM, first compound 0.0949 µM): 20.3%
- viability, T/C (second compound 10 µM, first compound 0.3 µM): 8.91%
